Values quoted from earlier work as cited in patent US12097208B2, “Method for treating nasal, sinonasal, and nasopharyngeal tissue infection and/or inflammation” (OTICARA, INC., priority 2019, dated 2024).

Legend:
[1] = in vivo

| Compound | Biological Half Life [1] | also measured |
| --- | --- | --- |
| C[C@]12CCC(=O)C=C1CC[C@@H]1[C@@H]2[C@@H](O)C[C@@]2(C)[C@H]1CC[C@]2(O)C(=O)CO [hydrocortisone] | 8-12 Hours | – |
| C[C@]12C=CC(=O)C=C1CC[C@@H]1[C@@H]2[C@@H](O)C[C@@]2(C)[C@H]1CC[C@]2(O)C(=O)CO [prednisolone] | 18-36 Hours | – |
| C[C@]12C=CC(=O)C=C1CC[C@H]1[C@@H]3C[C@@H](O)[C@](O)(C(=O)CO)[C@@]3(C)C[C@H](O)[C@@]12F [triamcinolone] | 18-36 Hours | – |
| CCC(=O)OCC(=O)[C@@]1(OC(=O)CC)[C@@H](C)C[C@H]2C3CCC4=CC(=O)C=CC4(C)[C@@]3(F)[C@@H](O)CC21C (stereo partly drawn) [Betamethasone dipropionate, 9-Fluoro-11β,17,21-trihydroxy-16β-methylpregna-1,4-diene-3,20-dione 17,21-dipropionate] | 36-54 Hours | – |
| C[C@H]1C[C@@H]2[C@H]([C@@H](O)C[C@@]3(C)[C@H]2CC[C@]3(O)C(=O)CO)[C@@]2(C)C=CC(=O)C=C12 [Methyl-prednisolone] | 18-36 Hours | – |
| Clc1ccccc1C(c1ccccc1)(c1ccccc1)n1ccnc1 [clotrimazole] | – | Antibacterial activity against Staphylococci (Staphylococci): antibacterial activity; Antibacterial activity against Steptococci (Steptococci): antibacterial activity; Effect on Pseudomonas aeruginosa (Pseudomonas aeruginosa): reduction; Antibacterial activity against Corynebacteria (Corynebacteria): antibacterial activity; Antibacterial activity against Gardnerella vaginalis (Gardnerella vaginalis): antibacterial activity |
